# Measurements from patent US20220107328A1, “METHODS OF TREATING LIVER DISEASES” (Camp4 Therapeutics Corporation, priority 2018, published 2022).
# B1: GDF2 (protein, UniProt Q9UK05 320-429, looked up)
# Growth/differentiation factor …: SAGAGSHCQKTSLRVNFEDIGWDSWIIAPKEYEAYECKGGCFFPLADDVTPTKHAIVQTLVHLKFPTKVGKACCVPTKLSPISVLYKDDMGVPTLKYHYEGMSVAECGCR
# Legend:
# mouse hepatocytes = assay: Cytotoxicity in mouse hepatocytes; format: cell-based; details: 10 μM
# PNPLA3 expression = assay: RNA-seq of compound-treated primary human hepatocytes; format: cell-based; details: for Fold change (Log 2) vs untreated: PNPLA3 expression, RNA-seq
# Description: (§2) Cryopreserved hepatocytes were cultured in plating media for 16 hours, transferred to maintenance media for 4 hours. Cultured on serum-free media for 2 hours, then a compound was added. The hepatocytes were maintained on the serum-free media for 16 hours prior to gene expression analysis.
# (§3) Human hepatocytes cultured as described above were plated in 24-well format, adding 375,000 cells per well in a volume of 500 μl plating medium. Four hours before treatment, cells were washed with PBS and the medium was changed to either: fresh maintenance medium (complete) or modified maintenance medium.
# (§4) Compound stocks were prepared at 1000× final concentration and added in a 2-step dilution to the medium to reduce risk of a compound precipitating out of solution when added to the cells, and to ensure reasonable pipetting volumes. One at a time, each compound was first diluted 10-fold in warm (about 37° C.) modified maintenance medium (initial dilution=ID), mixed by vortexing, and the ID was diluted 100-fold into the cell culture (e.g. 5.1 μl into 1 well of a 24-well plate containing 0.5 mL medium). The plate was mixed by carefully swirling and after all wells were treated and returned to the incubator overnight. If desired, separate plates/wells were treated with vehicle-only controls and/or positive controls. If using multi-well plates, controls were included on each plate. After about 18 hours, cells were harvested for further analysis, e.g., ChIP-seq, RNA-seq, ATAC-seq, etc.
# The expression level of each gene was quantified with normalized FPKM (fragments per kilobase of exon per million mapped fragments). The differentially expressed genes were called using Cuffdiff v2.2.1 with q value<0.01 and log2 fold change>=1 or <=−1.
# (§5) To identify small molecules that modulate PNPLA3, primary human hepatocytes were prepared as a monoculture, and at least one small molecule compound was applied to the cells.
# (§6) RNA-seq was performed to determine the effects of the compounds on PNPLA3 expression in hepatocytes. Fold change was calculated by dividing the level of expression in the cell system that had been perturbed by the level of expression in an unperturbed system. Changes in expression having a p-value≤0.05 were considered significant.
# PNPLA3 mRNA [1] = assay: qRT-PCR of PNPLA3 mRNA in compound-treated primary human hepatocytes
# Description: as §2, §3, §4
# Analysis of the fold changes in expression as measured by qRT-PCR were performed using the technique below. The control was DMSO, and the treatment was the selected compound (CPD). The internal control was GAPDH or B-Actin (or otherwise indicated), and the gene of interest is the target. First, the averages of the 4 conditions were calculated for normalization: DMSO:GAPDH, DMSO:Target, CPD: GAPDH, and CPD:Target. Next, the ΔCT of both control and treatment were calculated to normalize to internal control (GAPDH) using (DMSO:Target)−(DMSO:GAPDH)=ΔCT control and (CPD:Target)−(CPD: GAPDH)=ΔCT experimental. Then, the ΔΔCT was calculated by ΔCT experimental−ΔCT control. The Expression Fold Change (or Relative Quantification, abbreviated as RQ) was calculated by 2−(ΔΔCT) (2-fold expression change was shown by RNA-Seq results provided herein).
# The aim of the validation studies was to test the identified compounds from key pathways, and expand the compound franchise to identify other potential hits. Candidate compounds were subjected to validation with qRT-PCR in human hepatocytes. qRT-PCR was performed on samples of primary human hepatocytes from a second donor treated with the candidate compounds. Compounds were tested at concentrations ranging from 0.01 μM to 50 μM, with the majority tested at 10 μM.
# Primary human hepatocytes and stellate cells were also incubated with inhibitors of the TGFβ pathway and PNPLA3 gene expression changes assessed via qRT-PCR as previously described. In addition, primary hepatocytes and stellate cells were treated with TGFβ-ligand alone or with selected the small molecule inhibitors for 18 hours and subsequently harvested. for gene expression assays.
# The other set was harvest for mRNA processing as previously described.
# [2] = tested on: phosphorylated NDRG1 (pNDRG1/NDRG1); assay: Western blot of phosphorylated NDRG1 in human hepatocytes; format: cell-based; details: 3 μM, mTORC2 pathway, time point not stated
# Description: (§1) Levels of phosphorylated S6, AKT, and NDRG1 proteins were determined as compared to total S6, AKT, and NDRG1 protein. PNPLA3 mRNA expression was quantified and normalized to housekeeping gene GUSB.
# [3] = tested on: phosphorylated AKT (pAKT/AKT); assay: Western blot of phosphorylated AKT in human hepatocytes; format: cell-based; details: human hepatocytes, 3 μM, mTORC2 pathway; time point not stated
# Description: as §1
# [4] = tested on: phosphorylated 4EBP1 (p4EBP1c (37/46)/4EBP1c); assay: Western blot of phosphorylated 4EBP1 in human hepatocytes; format: cell-based; details: 3 μM, mTORC1 pathway, time point not stated
# COL1A1 mRNA = assay: qRT-PCR of COL1A1 mRNA in human primary hepatic stellate cells; format: cell-based; details: 3 μM, relative to GAPDH
# Description: Cells were plated at a density of 17000 cells/well in a 96-well plate and allowed to adhere overnight. The following day cell culture media was replenished with the indicated concentration(s) of compound for 18 hours. […] Medium was removed after 18 hours and cells were processed for further analysis, e.g. qRT-PCR.
# Analysis of the fold changes in expression as measured by qRT-PCR were performed using the technique below. The control was DMSO, and the treatment was the selected compound (CPD). The internal control was GAPDH or B-Actin (or otherwise indicated), and the gene of interest is the target. First, the averages of the 4 conditions were calculated for normalization: DMSO:GAPDH, DMSO:Target, CPD: GAPDH, and CPD:Target. Next, the ΔCT of both control and treatment were calculated to normalize to internal control (GAPDH) using (DMSO:Target)−(DMSO:GAPDH)=ΔCT control and (CPD:Target)−(CPD: GAPDH)=ΔCT experimental. Then, the ΔΔCT was calculated by ΔCT experimental−ΔCT control.
# Candidate compounds were tested in stellate cells for their ability to modulate PNPLA3 and COL1A1. Stellate cells were treated with serial dilutions of the compounds, ranging from 0.1 μM to 100 μM. Changes in PNPLA3 (or COL1A1) mRNA levels in stellate cells were analyzed with qRT-PCR.
# PCSK9 mRNA = assay: qRT-PCR of PCSK9 mRNA in primary hepatocytes; format: cell-based, human; details: donor 4178, 3 μM, relative to GUSB
# [5] = tested on: phosphorylated S6 (pS6/S6); assay: Western blot of phosphorylated S6 in human hepatocytes; format: cell-based; details: human hepatocytes, 3 μM, mTORC1 pathway; time point not stated
# Description: as §1
# PNPLA3 mRNA [6] = assay: qRT-PCR of PNPLA3 mRNA in human primary hepatic stellate cells; format: cell-based; details: 3 μM, relative to GAPDH
# PNPLA5 expression = assay: RNA-seq of compound-treated primary human hepatocytes, PNPLA5; format: cell-based
# Description: as §5, §6
molecule,measurement,setting,value
C1=C/COCc2cc(ccc2OCCN2CCCC2)Nc2nccc(n2)-c2cccc(c2)COC/1 [Pacritinib],cytotoxicity / tolerability,mouse hepatocytes,slight cytotoxicity
"NS(=O)(=O)C#Cc1ccccc1 [Pifithrin-μ, 2-Phenylethynesulfonamide]",Fold change (Log 2) vs untreated,PNPLA3 expression,−0.68
"COc1cc(Nc2ncc(F)c(Nc3ccc4c(n3)N(COP(=O)([O-])[O-])C(=O)C(C)(C)O4)n2)cc(OC)c1OC.[Na+].[Na+] [R788, fostamatinib disodium hexahydrate]",Relative PNPLA3 mRNA levels,"PNPLA3 mRNA [1]; Syk pathway inhibitors, 10 μM, human hepatocytes, normalized to B2M, mean of three replicates ± standard deviation",0.77 ± 0.02
same,Fold change (Log 2) vs untreated,PNPLA3 expression,−1.38
CN1C(=O)c2sccc2N(C)c2nc(Nc3ccc(S(N)(=O)=O)cc3)ncc21 [XMU-MP-1],Fold change (Log 2) vs untreated,PNPLA3 expression,−0.66
CO[C@H]1C[C@@H]2CC[C@@H](C)[C@@](O)(O2)C(=O)C(=O)N2CCCC[C@H]2C(=O)O[C@H]([C@H](C)C[C@@H]2CC[C@@H](O)[C@H](OC)C2)CC(=O)[C@H](C)/C=C(\C)[C@@H](O)[C@@H](OC)C(=O)[C@H](C)C[C@H](C)/C=C/C=C/C=C/1C [rapamycin],Primary Hepatocytes 4178 PNPLA3 (fold change in mRNA expression),"PNPLA3 mRNA [1]; donor 4178, 3 μM, relative to GUSB",1.50
same,Primary Hepatocytes 4282 PNPLA3 (fold change in mRNA expression),"PNPLA3 mRNA [1]; donor 4282, 3 μM, relative to GUSB",1.10
same,PNPLA3 mRNA,"PNPLA3 mRNA [1]; human hepatocytes, 3 μM, normalized to GUSB, time point not stated",1.2
same,p-NDRG1/NDRG1,[2],1.76
same,pAKT (473)/AKT,[3],2.55
same,p4EBP1c (37/46)#/4EBP1c,[4],0.49
same,Primary Stellate cells COL1A1 (fold change in mRNA expression),COL1A1 mRNA,1.43
same,Primary Hepatocytes 4178 PCSK9 (fold change in mRNA expression),PCSK9 mRNA,1.37
same,pS6/S6,[5],0.07
same,Primary Stellate cells PNPLA3 (fold change in mRNA expression),PNPLA3 mRNA [6],0.49
Activin,PNPLA3 expression in the RNA-seq study (in words),PNPLA3 expression,best upregulators of PNPLA3 and PNPLA5
same,PNPLA5 expression in the RNA-seq study (in words),PNPLA5 expression,best upregulators of PNPLA3 and PNPLA5
B1,PNPLA3 expression in the RNA-seq study (in words),PNPLA3 expression,best upregulators of PNPLA3 and PNPLA5
same,PNPLA5 expression in the RNA-seq study (in words),PNPLA5 expression,best upregulators of PNPLA3 and PNPLA5
